Measurements: US9434695B2, “Nitrogenous heterocyclic derivatives and their application in drugs” (SUNSHINE LAKE PHARMA CO., LTD., priority 2012, dated 2016)

System: BHK-21 cells
Assay: inhibition of BHK-21 cell proliferation (CCK-8, optical density at 450 nm)
Format: cell-based
Settings: for IC50: Mesocricetus auratus, inhibition ratio of cell proliferation, 48 hours after dosing, CCK-8; for The ratio with PFD (multiple): ratio of Pirfenidone IC50 from the compound IC50, the bigger the multiple, the better the vitro inhibitory activity, 48 hours
Protocol: Taking BHK-21 cells which in exponential growth phase, collecting and counting the cells which had digestive transfer culture after fusion growth 85-95%, adjusting the cell density to 2×10^4 cells per milliliter, seeding the cells into 96-well plates, 100 μl/well, the cells were incubated in a 5% CO2 incubator at 37° C.
The upper clear liquid of the 96-well plates was removed after the cells adhering to the wall 24 hours. The above compounds were confected into solutions of different concentration and the solutions were added to the wells, 100 μl/well. Each concentration solution in 3 replicates, the cells were subcultured 48 hours after dosing.
3. Testing the Optical Density
10 μl of CCK-8 solution was added to each well 48 hours after dosing, and incubated for 2 hours. The optical density (A) of each well was determined by a microplate reader at 450 nm wavelength. Calculating the inhibition ratio of cell proliferation of each compound is based on A and the inhibition ratio of cell proliferation (inhibition ratio, IR)=(1−value of experimental group (Ai)/value of control group (Ao))×100% and the IC50 of each compound at 48 hours was calculated by data processing software.

Q: Cc1ccc(=O)n(-c2ccc(CN3CCOCC3)c(F)c2)c1 [Example 1, 1-(3-fluoro-4-(morpholinomethyl)phenyl)-5-methylpyridin-2(1H)-one] was tested. Which IC50 did it give?
A: The IC50 was 400 µM.

Q: And the “The ratio with PFD (multiple)” value?
A: The value was 16.6 multiple.

Q: How did the IC50 turn out when Cc1cc(=O)n(-c2ccc(N3CCOCC3)c(F)c2)c(C)n1 [Example 7, 3-(3-fluoro-4-morpholinophenyl)-2,6-dimethylpyrimidin-4(3H)-one] was run?
A: Its IC50 is 740 µM.

Q: What about the “The ratio with PFD (multiple)” value of the same compound?
A: The value was 1.35 multiple.

Q: Which IC50 does the source give for CCN(CC)c1ccc(-n2c(C)nc(C)cc2=O)cc1F [Example 8, 3-(4-(diethylamino)-3-fluorophenyl)-2,6-dimethylpyrimidin-4(3H)-one] here?
A: The IC50 was 1660 µM.

Q: And the “The ratio with PFD (multiple)” value?
A: The value was 2.31 multiple.

Q: With Cc1cc(=O)n(-c2ccc(N3CCS(=O)(=O)CC3)c(F)c2)c(C)n1 [Example 10, 3-(4-(1,1-dioxidothiomorpholino)-3-fluorophenyl)-2,6-dimethylpyrimidin-4(3H)-one] as the compound, how does the IC50 read?
A: Its IC50 is 5550 µM.

Q: What about the “The ratio with PFD (multiple)” value of the same compound?
A: Its value is 0.72 multiple.

Q: Which IC50 does the source give for Cc1cc(=O)n(-c2ccc(N3CCCCC3)c(F)c2)c(C)n1 [Example 11, 3-(3-fluoro-4-(piperidin-1-yl)phenyl)-2,6-dimethylpyrimidin-4(3H)-one] here?
A: The IC50 was 1320 µM.

Q: And the “The ratio with PFD (multiple)” value?
A: Its value is 2.91 multiple.

Q: With Cc1cc(=O)n(-c2ccc(N3CCN(C)CC3)c(F)c2)c(C)n1 [Example 12, 3-(3-fluoro-4-(4-methylpiperazin-1-yl)phenyl)-2,6-dimethylpyrimidin-4(3H)-one] as the compound, how does the IC50 read?
A: Its IC50 is 1400 µM.

Q: What about the “The ratio with PFD (multiple)” value of the same compound?
A: The value was 2.74 multiple.

Q: How did the IC50 turn out when Cc1cc(=O)n(-c2cc(F)c3c(c2)OCC2CCCN32)c(C)n1 (centres unmarked) [Example 13, 3-(9-fluoro-2,3,3a,4-tetrahydro-1H-benzo[b]pyrrolo[1,2-d][1,4]oxazin-7-yl)-2,6-dimethylpyrimidin-4(3H)-one] was run?
A: The IC50 was 1980 µM.

Q: What about the “The ratio with PFD (multiple)” value of the same compound?
A: Its value is 2.01 multiple.

Q: For Cc1cc(=O)n(-c2cnc(-c3ccc(N4CCOCC4)cc3)s2)c(C)n1 [Example 15, 2,6-dimethyl-3-(2-(4-morpholinophenyl)thiazol-5-yl)pyrimidin-4(3H)-one], which IC50 is on record?
A: Its IC50 is 970 µM.

Q: And the “The ratio with PFD (multiple)” value?
A: Its value is 3.97 multiple.

Q: For Cc1cc(=O)n(-c2ccc(-n3cccc3)c(F)c2)c(C)n1 [Example 18, 3-(3-fluoro-4-(1H-pyrrol-1-yl)phenyl)-2,6-dimethylpyrimidin-4(3H)-one], which IC50 is on record?
A: The IC50 was 560 µM.

Q: And the “The ratio with PFD (multiple)” value?
A: The value was 8.10 multiple.

Q: For Cc1cc(=O)n(-c2ccc(-n3cccn3)c(F)c2)c(C)n1 [Example 19, 3-(3-fluoro-4-(1H-pyrazol-1-yl)phenyl)-2,6-dimethylpyrimidin-4(3H)-one], which IC50 is on record?
A: Its IC50 is 1190 µM.

Q: What about the “The ratio with PFD (multiple)” value of the same compound?
A: The value was 3.21 multiple.

Q: Cc1cc(=O)n(-c2ccc(N3CCOCC3)c(F)c2)c(COc2cccc(F)c2)n1 [Example 20, 3-(3-fluoro-4-morpholinophenyl)-2-((3-fluorophenoxy)methyl)-6-methylpyrimidin-4(3H)-one] was tested. Which IC50 did it give?
A: Its IC50 is 40 µM.

Q: What about the “The ratio with PFD (multiple)” value of the same compound?
A: Its value is 95.70 multiple.

Q: How did the IC50 turn out when Cc1cc(=O)n(-c2ccc(N3CCCC3)c(F)c2)c(C)n1 [Example 21, 3-(3-fluoro-4-(pyrrolidin-1-yl)phenyl)-2,6-dimethylpyrimidin-4(3H)-one] was run?
A: Its IC50 is 1300 µM.

Q: And the “The ratio with PFD (multiple)” value?
A: Its value is 5.57 multiple.

Q: With CCCCN(CCCC)c1ccc(-n2c(C)nc(C)cc2=O)cc1F [Example 22, 3-(4-(di-n-butylamino)-3-fluorophenyl)-2,6-dimethylpyrimidin-4(3H)-one] as the compound, how does the IC50 read?
A: Its IC50 is 190 µM.

Q: And the “The ratio with PFD (multiple)” value?
A: Its value is 39.47 multiple.

Q: Which IC50 does the source give for Cc1cc(=O)n(-c2ccc(N(CC(C)C)CC(C)C)c(F)c2)c(C)n1 [Example 23, 3-(4-(diisobutylamino)-3-fluorophenyl)-2,6-dimethylpyrimidin-4(3H)-one] here?
A: Its IC50 is 110 µM.

Q: And the “The ratio with PFD (multiple)” value?
A: The value was 30.31 multiple.

Q: CCCCCCN(CCCCCC)c1ccc(-n2c(C)nc(C)cc2=O)cc1F [Example 24, 3-(4-(di-n-hexylamino)-3-fluorophenyl)-2,6-dimethylpyrimidin-4(3H)-one] was tested. Which IC50 did it give?
A: The IC50 was 40 µM.

Q: And the “The ratio with PFD (multiple)” value?
A: The value was 60.63 multiple.

Q: Cc1cc(=O)n(-c2ccc(N(C)CCN3CCOCC3)c(F)c2)c(C)n1 [Example 28, 3-(3-fluoro-4-(methyl(2-morpholinoethyl)amino)phenyl)-2,6-dimethylpyrimidin-4(3H)-one] was tested. Which IC50 did it give?
A: Its IC50 is 4990 µM.

Q: And the “The ratio with PFD (multiple)” value?
A: Its value is 1.60 multiple.

Q: For Cc1cc(=O)n(-c2ccc(NCCN3CCOCC3)cc2Cl)c(C)n1 [Example 29, 3-(2-chloro-4-((2-morpholinoethyl)amino)phenyl)-2,6-dimethylpyrimidin-4(3H)-one], which IC50 is on record?
A: Its IC50 is 1050 µM.

Q: What about the “The ratio with PFD (multiple)” value of the same compound?
A: The value was 6.82 multiple.

Q: How did the IC50 turn out when Cc1cc(=O)n(-c2ccc(NCCCN3CCOCC3)c(F)c2)c(C)n1 [Example 30, 3-(3-fluoro-4-((3-morpholinopropyl)amino)phenyl)-2,6-dimethylpyrimidin-4(3H)-one] was run?
A: Its IC50 is 540 µM.

Q: What about the “The ratio with PFD (multiple)” value of the same compound?
A: The value was 13.18 multiple.

Q: Which IC50 does the source give for Cc1cc(=O)n(-c2ccc(NCCCCN3CCOCC3)c(F)c2)c(C)n1 [Example 31, 3-(3-fluoro-4-((4-morpholinobutyl)amino)phenyl)-2,6-dimethylpyrimidin-4(3H)-one] here?
A: The IC50 was 2220 µM.

Q: What about the “The ratio with PFD (multiple)” value of the same compound?
A: Its value is 3.50 multiple.

Q: How did the IC50 turn out when CCCOCCN(CCOCCC)c1ccc(-n2c(C)nc(C)cc2=O)cc1F [Example 32, 3-(4-(bis(2-propoxyethyl)amino)-3-fluorophenyl)-2,6-dimethylpyrimidin-4(3H)-one] was run?
A: Its IC50 is 810 µM.

Q: What about the “The ratio with PFD (multiple)” value of the same compound?
A: Its value is 9.60 multiple.

Q: How did the IC50 turn out when CCCCCCNc1ccc(-n2c(C)nc(C)cc2=O)cc1F [Example 33, 3-(3-fluoro-4-(hexylamino)phenyl)-2,6-dimethylpyrimidin-4(3H)-one] was run?
A: The IC50 was 300 µM.

Q: What about the “The ratio with PFD (multiple)” value of the same compound?
A: The value was 25.70 multiple.

Q: What does the source list for CCOCCCNc1ccc(-n2c(C)nc(C)cc2=O)cc1F [Example 34, 3-(4-((3-ethoxypropyl)amino)-3-fluorophenyl)-2,6-dimethylpyrimidin-4(3H)-one]?
A: IC50: 2490 µM; The ratio with PFD (multiple): 3.10 multiple

Q: For Cc1cc(=O)n(-c2ccc(NCCCn3ccnc3)c(F)c2)c(C)n1 [Example 35, 3-(4-((3-(1H-imidazol-1-yl)propyl)amino)-3-fluorophenyl)-2,6-dimethylpyrimidin-4(3H)-one], which IC50 is on record?
A: The IC50 was 3010 µM.

Q: What about the “The ratio with PFD (multiple)” value of the same compound?
A: The value was 2.60 multiple.

Q: For Cc1cc(=O)n(-c2ccc(NCCN3CCCCC3)c(F)c2)c(C)n1 [Example 36, 3-(3-fluoro-4-((2-(piperidin-1-yl)ethyl)amino)phenyl)-2,6-dimethylpyrimidin-4(3H)-one], which IC50 is on record?
A: The IC50 was 2700 µM.

Q: What about the “The ratio with PFD (multiple)” value of the same compound?
A: The value was 2.90 multiple.

Q: For Cc1cc(=O)n(-c2ccc(NCCCn3cnnn3)c(F)c2)c(C)n1 [Example 37, 3-(4-((3-(1H-tetrazol-1-yl)propyl)amino)-3-fluorophenyl)-2,6-dimethylpyrimidin-4(3H)-one], which IC50 is on record?
A: Its IC50 is 4310 µM.

Q: What about the “The ratio with PFD (multiple)” value of the same compound?
A: The value was 1.80 multiple.

Q: Which results are given for Cc1cc(=O)n(-c2ccc(NCCc3cc4ccccc4[nH]3)c(F)c2)c(C)n1 [Example 38, 3-(4-((2-(1H-indol-2-yl)ethyl)amino)-3-fluorophenyl)-2,6-dimethylpyrimidin-4(3H)-one]?
A: IC50: 490 µM; The ratio with PFD (multiple): 15.80 multiple

Q: Which IC50 does the source give for CCCCCCN(CCCCCC)c1ccc(-n2c(C)nc(C)cc2=O)cc1Cl [Example 40, 3-(3-chloro-4-(dihexylamino)phenyl)-2,6-dimethylpyrimidin-4(3H)-one] here?
A: The IC50 was 60 µM.

Q: And the “The ratio with PFD (multiple)” value?
A: The value was 127.50 multiple.

Q: CCCCCCN(CCCCCC)c1ccc(-n2c(C)nc(C)cc2=O)cc1Br [Example 41, 3-(3-bromo-4-(dihexylamino)phenyl)-2,6-dimethylpyrimidin-4(3H)-one] was tested. Which IC50 did it give?
A: Its IC50 is 60 µM.

Q: And the “The ratio with PFD (multiple)” value?
A: Its value is 32.65 multiple.

Q: What does the source list for CCCCCCN(CCCCCC)c1ccc(-n2c(C)nc(C)cc2=O)cc1C#N [Example 42, 2-(dihexylamino)-5-(2,4-dimethyl-6-oxopyrimidin-1(6H)-yl)benzonitrile]?
A: IC50: 70 µM; The ratio with PFD (multiple): 27.39 multiple

Q: What does the source list for Cc1cc(=O)n(-c2ccc(NC(C)(C)Cc3ccc4ccccc4c3)c(Cl)c2)c(C)n1 [Example 45, 3-(3-chloro-4-((2-methyl-1-(naphthalen-2-yl)propan-2-yl)amino)phenyl)-2,6-dimethylpyrimidin-4(3H)-one]?
A: IC50: 70 µM; The ratio with PFD (multiple): 42.60 multiple

Q: Cc1cc(=O)n(-c2ccc(N3CCOCC3)c(Cl)c2)c(C)n1 [Example 46, 3-(3-chloro-4-morpholinophenyl)-2,6-dimethylpyrimidin-4(3H)-one] was tested. Which IC50 did it give?
A: The IC50 was 1070 µM.

Q: And the “The ratio with PFD (multiple)” value?
A: The value was 2.80 multiple.

Q: For Cc1cc(=O)n(-c2ccc(N3CCOCC3)c(C(F)(F)F)c2)c(C)n1 [Example 47, 2,6-dimethyl-3-(4-morpholino-3-(trifluoromethyl)phenyl)pyrimidin-4(3H)-one], which IC50 is on record?
A: Its IC50 is 930 µM.

Q: What about the “The ratio with PFD (multiple)” value of the same compound?
A: Its value is 3.92 multiple.

Q: Cc1cc(=O)n(-c2ccc3ccn(COc4cccc(C#N)c4)c3c2)c(C)n1 [Example 48, 3-((6-(2,4-dimethyl-6-oxopyrimidin-1(6H)-yl)-1H-indol-1-yl)methoxy)benzonitrile] was tested. Which IC50 did it give?
A: The IC50 was 350 µM.

Q: What about the “The ratio with PFD (multiple)” value of the same compound?
A: The value was 10.60 multiple.

Q: How did the IC50 turn out when Cc1cc(=O)n(-c2ccc(N3CCOCC3)c(F)c2)c(COc2ccc(F)c(F)c2)n1 [Example 49, 2-((3,4-difluorophenoxy)methyl)-3-(3-fluoro-4-morpholinophenyl)-6-methylpyrimidin-4(3H)-one] was run?
A: Its IC50 is 70 µM.

Q: What about the “The ratio with PFD (multiple)” value of the same compound?
A: Its value is 35.52 multiple.
